Results as given in US8383094B2, “Hepatitis C virus inhibitors” (Bristol-Myers Squibb Company, priority 2008, dated 2013).
Like-named read-outs stand apart in the source and are kept apart here.

Tested on: HCV 1b genotype
Experiment: HCV Replicon assay (HCV-neo replicon cells, wild-type)
Type: cell-based
Settings: HCV 1b genotype replicon, read-out: 1b EC50 (in μM or range)
Protocol: An HCV Replicon assay was utilized in the present disclosure, and was prepared, conducted and validated as described in commonly owned PCT/US2006/022197 and in O′Boyle et. al. Antimicrob Agents Chemother, 2005 April; 49(4):1346-53. Assay methods incorporating luciferase reporters have also been used as described (Apath.com).
HCV-neo replicon cells and replicon cells containing mutations in the NS5A region were used to test the currently described family of compounds. The compounds were determined to have more than 10-fold less inhibitory activity on cells containing mutations than wild-type cells. Thus, the compounds of the present disclosure can be effective in inhibiting the function of the HCV NS5A protein and are understood to be as effective in combinations as previously described in application PCT/US2006/022197 and commonly owned WO/04014852. Further, the compounds of the present disclosure can be effective against the HCV 1b genotype. It should also be understood that the compounds of the present disclosure can inhibit multiple genotypes of HCV. […] In one embodiment, compounds of the present disclosure are inhibitory versus 1a, 1b, 2a, 2b, 3a, 4a, and 5a genotypes.

[1] = Hepatitis C virus, range class A-D

## O=C1CN(C(C(=O)N2CCC[C@H]2C(=O)Nc2ccc(C#Cc3ccc(NC(=O)[C@@H]4CCCN4C(=O)C(c4ccccc4)N4CCNC(=O)C4)cc3)cc2)c2ccccc2)CCN1 (single isomer, unassigned) [VN33.5]
Range class A-D
  EC50: 0.1 to 0.999 µM

## O=C1CN(C(C(=O)N2CCC[C@H]2C(=O)Nc2ccc(C#Cc3ccc(NC(=O)[C@@H]4CCCN4C(=O)C(c4ccccc4)N4CCNC(=O)C4)cc3)cc2)c2ccccc2)CCN1 (single isomer, unassigned) [VN33]
Range class A-D
  EC50: < 0.00457 µM

## CN(CC(N)=O)C(C(=O)N1CCC[C@H]1C(=O)Nc1ccc(C#Cc2ccc(NC(=O)[C@@H]3CCCN3C(=O)C(c3ccccc3)N(C)CC(N)=O)cc2)cc1)c1ccccc1 (single isomer, unassigned) [VN34]
[1]
  EC50: < 0.00457 µM

## CC(=O)N(C)C(C(=O)N1CCC[C@H]1C(=O)Nc1ccc(C#Cc2ccc(NC(=O)[C@@H]3CCCN3C(=O)C(c3ccccc3)N(C)C(C)=O)cc2)cc1)c1ccccc1 (single isomer, unassigned) [VN35]
[1]
  EC50: 0.1 to 0.999 µM

## CCN(C)C(C(=O)N1CCC[C@H]1C(=O)Nc1ccc(C#Cc2ccc(NC(=O)[C@@H]3CCCN3C(=O)C(c3ccccc3)N(C)CC)cc2)cc1)c1ccccc1 (single isomer, unassigned) [VN36]
[1]
  EC50: < 0.00457 µM

## O=C(Nc1ccc(C#Cc2ccc(NC(=O)[C@@H]3CCCN3C(=O)OCc3ccccc3)cc2)cc1)[C@@H]1CCCN1C(=O)OCc1ccccc1 [Example D1, Dibenzyl(2S,2′S)-2,2′-(1,2-ethynediylbis(4,1-phenylenecarbamoyl))di(1-pyrrolidinecarboxylate)]
[1]
  EC50: 0.00457 to 0.099 µM

## O=C(Nc1ccc(C#Cc2ccc(NC(=O)[C@@H]3CCCN3C(=O)Cc3ccccc3)cc2)cc1)[C@@H]1CCCN1C(=O)Cc1ccccc1 [Example D2, (2S,2′S)-N,N′-(1,2-ethynediyldi-4,1-phenylene)bis(1-(phenylacetyl)-2-pyrrolidinecarboxamide)]
[1]
  EC50: < 0.00457 µM

## O=C(Nc1ccc(C#Cc2ccc(NC(=O)C3CC3)cc2)cc1)C1CC1 [Example D3, N,N′-(4,4′-(Ethyne-1,2-diyl)bis(4,1-phenylene))dicyclopropanecarboxamide]
[1]
  EC50: 0.00457 to 0.099 µM

## CC(=O)N1CCC[C@H]1C(=O)Nc1ccc(C#Cc2ccc(NC(=O)C3CCN(C(=O)OCc4ccccc4)C3)cc2)cc1 (stereo partly drawn) [Example D4, Benzyl 3-((4-((4-((1-acetyl-L-prolyl)amino)phenyl)ethynyl)phenyl)carbamoyl)-1-pyrrolidinecarboxylate]
[1]
  EC50: 1 to 10 µM

## O=C(Nc1ccc(C#Cc2ccc(NC(=O)C3CCN(C(=O)OCc4ccccc4)C3)cc2)cc1)C1CCN(C(=O)OCc2ccccc2)C1 (stereo not drawn) [Example D5, Dibenzyl3,3′-(1,2-ethynediylbis(4,1-phenylenecarbamoyl))di(1-pyrrolidinecarboxylate)]
[1]
  EC50: 1 to 10 µM

## O=C(Nc1ccc(C#Cc2ccc(NC(=O)[C@@H]3CCCN3C(=O)[C@H]3CCCO3)cc2)cc1)C1CC1 [Example D6, N-(4-((4-((cyclopropylcarbonyl)amino)phenyl)ethynyl)phenyl)-1-((2R)-tetrahydro-2-furanylcarbonyl)-L-prolinamide]
[1]
  EC50: 0.1 to 0.999 µM

## CC(=O)N1CCC[C@H]1C(=O)Nc1ccc(C#Cc2ccc(NC(=O)[C@@H]3C[C@@H](OC(C)(C)C)CN3C(=O)OCc3ccccc3)cc2)cc1 [Example D7, Benzyl (2S,4R)-2-((4-((4-((((2S)-1-acetyl-2-pyrrolidinyl)carbonyl)amino)phenyl)ethynyl)phenyl)carbamoyl)-4-tert-butoxy-1-pyrrolidinecarboxylate]
[1]
  EC50: 1 to 10 µM

## CC(C)(C)O[C@@H]1C[C@@H](C(=O)Nc2ccc(C#Cc3ccc(NC(=O)[C@@H]4C[C@@H](OC(C)(C)C)CN4C(=O)OCc4ccccc4)cc3)cc2)N(C(=O)OCc2ccccc2)C1 [Example D8, Dibenzyl (2S,4R,2′S,4′R)-2,2′-(1,2-ethynediylbis(4,1-phenylenecarbamoyl))bis(4-tert-butoxy-1-pyrrolidinecarboxylate)]
[1]
  EC50: 1 to 10 µM

## CC(=O)N1CCC[C@H]1C(=O)Nc1ccc(C#Cc2ccc(NC(=O)C3CC(=O)N(CCc4cccs4)C3)cc2)cc1 (stereo partly drawn) [Example D9, 1-Acetyl-N-(4-((4-(((5-oxo-1-(2-(2-thienyl)ethyl)-3-pyrrolidinyl)carbonyl)amino)phenyl)ethynyl)phenyl)-L-prolinamide]
Hepatitis C virus
  EC50: 2.42 µM

## O=C(Nc1ccc(C#Cc2ccc(NC(=O)C3CC(=O)N(CCc4cccs4)C3)cc2)cc1)C1CC(=O)N(CCc2cccs2)C1 (stereo not drawn) [Example D10, N,N′-(1,2-ethynediyldi-4,1-phenylene)bis(5-oxo-1-(2-(2-thienyl)ethyl)-3-pyrrolidinecarboxamide)]
[1]
  EC50: 1 to 10 µM

## CC(=O)N1CCC[C@H]1C(=O)Nc1ccc(C#Cc2ccc(NC(=O)[C@@H]3CCCCN3C(=O)OCc3ccccc3)cc2)cc1 [Example D11, Benzyl (2S)-2-((4-((4-((1-acetyl-L-prolyl)amino)phenyl)ethynyl)phenyl)carbamoyl)-1-piperidinecarboxylate]
Hepatitis C virus
  EC50: 0.59 µM

## O=C(Nc1ccc(C#Cc2ccc(NC(=O)[C@@H]3CCCCN3C(=O)OCc3ccccc3)cc2)cc1)[C@@H]1CCCCN1C(=O)OCc1ccccc1 [Example D12, Dibenzyl (2S,2′S)-2,2′-(1,2-ethynediylbis(4,1-phenylenecarbamoyl))di(1-piperidinecarboxylate)]
[1]
  EC50: 0.1 to 0.999 µM

## CC(=O)N1CCC[C@H]1C(=O)Nc1ccc(C#Cc2ccc(NC(=O)C3CC(=O)N(Cc4ccc(Cl)cc4)C3)cc2)cc1 (stereo partly drawn) [Example D13, 1-Acetyl-N-(4-((4-(((1-(4-chlorobenzyl)-5-oxo-3-pyrrolidinyl)carbonyl)amino)phenyl)ethynyl)phenyl)-L-prolinamide]
[1]
  EC50: 1 to 10 µM

## O=C(Nc1ccc(C#Cc2ccc(NC(=O)C3CC(=O)N(Cc4ccc(Cl)cc4)C3)cc2)cc1)C1CC(=O)N(Cc2ccc(Cl)cc2)C1 (stereo not drawn) [Example D14, N,N′-(1,2-ethynediyldi-4,1-phenylene)bis(1-(4-chlorobenzyl)-5-oxo-3-pyrrolidinecarboxamide)]
[1]
  EC50: 1 to 10 µM

## O=C(Nc1ccc(C#Cc2ccc(NC(=O)[C@@H]3CCCN3C(=O)Cc3ccccc3)cc2)cc1)C1CC1 [Example D15, N-(4-((4-((cyclopropylcarbonyl)amino)phenyl)ethynyl)phenyl)-1-(phenylacetyl)-L-prolinamide]
[1]
  EC50: 0.1 to 0.999 µM

## O=C(CC1CC1)Nc1ccc(C#Cc2ccc(NC(=O)[C@@H]3CCCN3C(=O)Cc3ccccc3)cc2)cc1 [Example D16, N-(4-((4-((cyclopropylacetyl)amino)phenyl)ethynyl)phenyl)-1-(phenylacetyl)-L-prolinamide]
[1]
  EC50: 0.1 to 0.999 µM

## O=C(Nc1ccc(C#Cc2ccc(NC(=O)[C@@H]3CCCN3C(=O)Cc3ccccc3)cc2)cc1)[C@H]1CCCO1 [Example D17, 1-(Phenylacetyl)-N-(4-((4-(((2R)-tetrahydro-2-furanylcarbonyl)amino)phenyl)ethynyl)phenyl)-L-prolinamide]
[1]
  EC50: 0.1 to 0.999 µM

## O=C(Nc1ccc(C#Cc2ccc(NC(=O)[C@@H]3CCCN3C(=O)OCc3ccccc3)cc2)cc1)C1CC1 [Example D18, Benzyl (2S)-2-((4-((4-((cyclopropylcarbonyl)amino)phenyl)ethynyl)phenyl)carbamoyl)-1-pyrrolidinecarboxylate]
[1]
  EC50: 0.1 to 0.999 µM

## O=C(CC1CC1)Nc1ccc(C#Cc2ccc(NC(=O)[C@@H]3CCCN3C(=O)OCc3ccccc3)cc2)cc1 [Example D19, Benzyl (2S)-2-((4-((4-((cyclopropylacetyl)amino)phenyl)ethynyl)phenyl)carbamoyl)-1-pyrrolidinecarboxylate]
[1]
  EC50: 0.1 to 0.999 µM

## O=C(Nc1ccc(C#Cc2ccc(NC(=O)[C@@H]3CCCN3C(=O)OCc3ccccc3)cc2)cc1)C1CCC1 [Example D20, Benzyl (2S)-2-((4-((4-((cyclobutylcarbonyl)amino)phenyl)ethynyl)phenyl)carbamoyl)-1-pyrrolidinecarboxylate]
[1]
  EC50: 0.1 to 0.999 µM

## O=C(Nc1ccc(C#Cc2ccc(NC(=O)[C@@H]3CCCN3C(=O)OCc3ccccc3)cc2)cc1)[C@H]1CCCO1 [Example D21, Benzyl (2S)-2-((4-((4-(((2R)-tetrahydro-2-furanylcarbonyl)amino)phenyl)ethynyl)phenyl)carbamoyl)-1-pyrrolidinecarboxylate]
[1]
  EC50: 0.1 to 0.999 µM

## CC(=O)N1CCC[C@H]1C(=O)Nc1ccc(C#Cc2ccc(NC(=O)[C@@H]3CCCN3C(=O)Cc3ccccc3)cc2)cc1 [Example D22, (2S)-1-Acetyl-N-(4-((4-((((2S)-1-(phenylacetyl)-2-pyrrolidinyl)carbonyl)amino)phenyl)ethynyl)phenyl)-2-pyrrolidinecarboxamide]
Hepatitis C virus
  EC50: 0.14 µM

## O=C(CC1CC1)Nc1ccc(C#Cc2ccc(NC(=O)[C@@H]3CCCN3C(=O)[C@H]3CCCO3)cc2)cc1 [Example D23, N-(4-((4-((cyclopropylacetyl)amino)phenyl)ethynyl)phenyl)-1-((2R)-tetrahydro-2-furanylcarbonyl)-L-prolinamide]
Hepatitis C virus
  EC50: 2.6 µM

## O=C(Nc1ccc(C#Cc2ccc(NC(=O)[C@@H]3CCCN3C(=O)[C@H]3CCCO3)cc2)cc1)C1CCC1 [Example D24, N-(4-((4-((cyclobutylcarbonyl)amino)phenyl)ethynyl)phenyl)-1-((2R)-tetrahydro-2-furanylcarbonyl)-L-prolinamide]
[1]
  EC50: 1 to 10 µM

## O=C(Nc1ccc(C#Cc2ccc(NC(=O)[C@@H]3CCCN3C(=O)[C@H]3CCCO3)cc2)cc1)[C@H]1CCCO1 [Example D25, 1-((2R)-Tetrahydro-2-furanylcarbonyl)-N-(4-((4-(((2R)-tetrahydro-2-furanylcarbonyl)amino)phenyl)ethynyl)phenyl)-L-prolinamide]
[1]
  EC50: 1 to 10 µM
